Measurements reported in US9233964B2, “Sulfamide piperazine derivatives as protein tyrosine kinase inhibitors and pharmaceutical use therof” (LEO PHARMA A/S, priority 2011, dated 2016).

Assays:
Assay type in all cases: biochemical
[1] = biological target: T1, JAK1 (Homo sapiens, UniProt P23458); assay: JAK kinase assay (HTRF, phosphorylation of synthetic peptide), JAK1; conditions: catalytic domain, ATP at Km (7 μM); read-out: JAK1 kinase inhibitory activity (EC50)
T1 construct: JAK1 (aa 850-1154) and TYK2 (aa 871-1187) are expressed with an N-terminally fused GST-tag; GST (N); purchased Carna Biosciences, Inc; host or cells: baculovirus expression system
Outline: (§1)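 Catalytic-domain human JAK1 (GST-tagged, aa 850-1154) or His-tagged JAK2, baculovirus-expressed, phosphorylated 1 µM biotinylated TK peptide at Km ATP (JAK1 7 µM, 10 mM MgCl2, 50 nM SEB; JAK2 4 µM, 5 mM MgCl2) in pH 7.0 Hepes, 20-30 min RT. EDTA stop; overnight streptavidin-XL665/cryptate HTRF read.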

[2] = biological target: T2, JAK2 (Homo sapiens, UniProt O60674); assay: JAK kinase assay (HTRF, phosphorylation of synthetic peptide), JAK2; conditions: catalytic domain, ATP at Km (4 μM); read-out: JAK2 kinase inhibitory activity (EC50)
T2 construct: All four purified enzymes contain only the catalytic domain; His (N); purchased Carna Biosciences, Inc; host or cells: baculovirus expression system
Outline: as §1

[3] = biological target: T3, JAK3 (Homo sapiens, UniProt P52333); assay: JAK kinase assay (HTRF, phosphorylation of synthetic peptide), JAK3; conditions: catalytic domain, ATP at Km (2 μM); read-out: JAK3 kinase inhibitory activity (EC50)
T3 construct: All four purified enzymes contain only the catalytic domain; His (N); purchased Carna Biosciences, Inc; host or cells: baculovirus expression system

[4] = biological target: T4, TYK2 (Homo sapiens, UniProt P29597); assay: JAK kinase assay (HTRF, phosphorylation of synthetic peptide), TYK2; conditions: catalytic domain, ATP at Km (13 μM); read-out: TYK2 kinase inhibitory activity (EC50)
T4 construct: JAK1 (aa 850-1154) and TYK2 (aa 871-1187) are expressed with an N-terminally fused GST-tag; GST (N); purchased Carna Biosciences, Inc; host or cells: baculovirus expression system
T4 sequence (P29597 871-1187): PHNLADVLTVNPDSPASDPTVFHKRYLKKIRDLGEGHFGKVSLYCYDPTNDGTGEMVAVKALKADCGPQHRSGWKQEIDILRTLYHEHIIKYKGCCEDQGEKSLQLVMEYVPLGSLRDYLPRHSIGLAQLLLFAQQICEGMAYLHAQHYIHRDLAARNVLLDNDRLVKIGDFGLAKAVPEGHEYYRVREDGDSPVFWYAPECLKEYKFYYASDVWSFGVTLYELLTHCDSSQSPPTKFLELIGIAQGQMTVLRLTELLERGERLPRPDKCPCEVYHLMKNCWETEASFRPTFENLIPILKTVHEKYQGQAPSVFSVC
Outline: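 1 µM biotinylated TK peptide at Km ATP in pH 7.0 Hepes, 20-30 min RT. EDTA stop; overnight streptavidin-XL665/cryptate HTRF read.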

T3 sequence (P52333 822-1111 limits assumed): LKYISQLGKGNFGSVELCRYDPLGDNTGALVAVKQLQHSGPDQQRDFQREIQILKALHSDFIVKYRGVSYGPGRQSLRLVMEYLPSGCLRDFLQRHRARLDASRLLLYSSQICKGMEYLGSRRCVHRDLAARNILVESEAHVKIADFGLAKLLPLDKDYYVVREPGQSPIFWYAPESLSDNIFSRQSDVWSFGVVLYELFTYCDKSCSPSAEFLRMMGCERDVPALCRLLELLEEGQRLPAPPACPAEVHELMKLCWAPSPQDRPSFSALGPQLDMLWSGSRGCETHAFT
T2 sequence (O60674 849-1124 limits assumed): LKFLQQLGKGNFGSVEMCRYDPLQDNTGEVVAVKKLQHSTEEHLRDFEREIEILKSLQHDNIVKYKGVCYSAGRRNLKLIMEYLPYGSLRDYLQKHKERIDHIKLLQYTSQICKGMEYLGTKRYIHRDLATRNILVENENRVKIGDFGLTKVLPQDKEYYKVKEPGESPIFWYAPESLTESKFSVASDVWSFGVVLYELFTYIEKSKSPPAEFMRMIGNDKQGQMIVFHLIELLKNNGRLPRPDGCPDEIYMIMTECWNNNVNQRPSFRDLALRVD
T1 sequence (P23458 850-1154): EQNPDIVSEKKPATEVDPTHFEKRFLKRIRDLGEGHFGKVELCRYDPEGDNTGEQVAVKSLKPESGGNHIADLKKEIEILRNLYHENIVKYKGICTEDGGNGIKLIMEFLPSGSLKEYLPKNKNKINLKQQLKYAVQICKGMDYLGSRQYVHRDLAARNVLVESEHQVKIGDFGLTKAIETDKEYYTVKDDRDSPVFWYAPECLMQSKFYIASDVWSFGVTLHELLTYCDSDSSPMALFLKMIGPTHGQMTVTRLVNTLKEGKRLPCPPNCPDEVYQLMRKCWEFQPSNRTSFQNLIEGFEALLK

EC50 [1] | EC50 [2] | EC50 [3] | EC50 [4] | SMILES
< 100 nM | < 100 nM | < 100 nM | 100 to 500 nM | CN(C)S(=O)(=O)N1CCN(c2ncnc3[nH]ccc23)CC12CC2 [Example 45, 7-(7H-Pyrrolo[2,3-d]pyrimidin-4-yl)-4,7-diaza-spiro[2.5]octane-4-sulfonic acid dimethylamide]
100 to 500 nM | < 100 nM | 100 to 500 nM | > 500 nM | O=S(=O)(N(CCc1ccccc1)CC1CCC1)N1CCN(c2ncnc3[nH]ccc23)CC12CC2 [Example 3, 7-(7H-Pyrrolo[2,3-d]pyrimidin-4-yl)-4,7-diaza-spiro[2.5]octane-4-sulfonic acid cyclobutyl methyl-phenethyl-amide]
< 100 nM | < 100 nM | < 100 nM | 100 to 500 nM | CC(C)CCN(C)S(=O)(=O)N1CCN(c2ncnc3[nH]ccc23)CC12CC2 [Example 27, 7-(7H-Pyrrolo[2,3-d]pyrimidin-4-yl)-4,7-diaza-spiro[2.5]octane-4-sulfonic acid methyl-(3-methyl-butyl)-amide]
< 100 nM | < 100 nM | < 100 nM | < 100 nM | CN(CCCC#N)S(=O)(=O)N1CCN(c2ncnc3[nH]ccc23)CC12CC2 [Example 35, 7-(7H-Pyrrolo[2,3-d]pyrimidin-4-yl)-4,7-diaza-spiro[2.5]octane-4-sulfonic acid (3-cyano-propyl)-methyl-amide]
100 to 500 nM | < 100 nM | 100 to 500 nM | > 500 nM | CCN(C(C)C)S(=O)(=O)N1CCN(c2ncnc3[nH]ccc23)CC12CC2 [Example 95, N-ethyl-N-isopropyl-5-(7H-pyrrolo[2,3-d]pyrimidin-4-yl)-5,8-diazaspiro[2.5]octane-8-sulfonamide]
< 100 nM | < 100 nM | < 100 nM | < 100 nM | N#CCN(CC1CCS(=O)(=O)C1)S(=O)(=O)N1CCN(c2ncnc3[nH]ccc23)CC12CC2 (stereo not shown) [Example 166, N-(cyanomethyl)-N-[(1,1-dioxothiolan-3-yl)methyl]-5-(7H-pyrrolo[2,3-d]pyrimidin-4-yl)-5,8-diazaspiro[2.5]octane-8-sulfonamide]
< 100 nM | < 100 nM | 100 to 500 nM | 100 to 500 nM | O=S(=O)(NC[C@@H]1CCCN1Cc1ccccc1)N1CCN(c2ncnc3[nH]ccc23)CC12CC2 [Example 175, N-[[(2S)-1-benzylpyrrolidin-2-yl]methyl]-5-(7H-pyrrolo[2,3-d]pyrimidin-4-yl)-5,8-diazaspiro[2.5]octane-8-sulfonamide]
